From US10934274B2, “Quinoline derivatives as TAM RTK inhibitors” (Qurient Co., Ltd., priority 2015, dated 2021) come the findings set out here.

Bounds are passed on as bounds.

One assay deals with T1, Axl (Homo sapiens, UniProt P30530).
T1 construct: purchased Life Technologies
T1 sequence (P30530 26-894): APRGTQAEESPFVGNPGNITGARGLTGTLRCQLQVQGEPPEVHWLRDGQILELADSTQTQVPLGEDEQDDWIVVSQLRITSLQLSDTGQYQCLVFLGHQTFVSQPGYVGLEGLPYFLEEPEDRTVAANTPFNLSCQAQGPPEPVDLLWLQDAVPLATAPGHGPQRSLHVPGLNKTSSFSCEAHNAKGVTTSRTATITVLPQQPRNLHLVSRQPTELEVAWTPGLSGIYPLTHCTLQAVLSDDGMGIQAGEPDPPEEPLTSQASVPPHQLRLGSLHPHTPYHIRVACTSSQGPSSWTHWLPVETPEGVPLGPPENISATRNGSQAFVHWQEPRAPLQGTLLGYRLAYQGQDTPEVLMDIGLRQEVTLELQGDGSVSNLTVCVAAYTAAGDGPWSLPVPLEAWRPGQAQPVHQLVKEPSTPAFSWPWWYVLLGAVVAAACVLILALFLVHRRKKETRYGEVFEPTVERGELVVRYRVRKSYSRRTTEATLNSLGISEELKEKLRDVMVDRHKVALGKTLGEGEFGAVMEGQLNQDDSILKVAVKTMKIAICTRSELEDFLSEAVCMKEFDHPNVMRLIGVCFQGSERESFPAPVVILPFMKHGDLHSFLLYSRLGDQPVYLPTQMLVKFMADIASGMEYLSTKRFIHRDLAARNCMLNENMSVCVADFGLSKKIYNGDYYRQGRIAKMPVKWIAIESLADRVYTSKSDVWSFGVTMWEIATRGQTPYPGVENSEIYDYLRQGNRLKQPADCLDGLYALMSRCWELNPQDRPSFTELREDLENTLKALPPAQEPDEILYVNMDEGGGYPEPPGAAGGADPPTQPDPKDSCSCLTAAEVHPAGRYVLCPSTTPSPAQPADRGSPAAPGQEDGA
The assay is described as follows: LanthaScreen Eu kinase binding assay, Axl. To be noted: Tracer 236.

The target in a further assay is T2, Met (Homo sapiens, UniProt P08581).
T2 construct: purchased Life Technologies
The assay is described as follows: LanthaScreen Eu kinase binding assay, Met. To be noted: Tracer 236, read-out: cMet kinase binding activity (Kd).

The subject of assay [1] is Axl phosphorylation in transiently transfected HEK293T cells. Briefly: Cellular Axl phosphorylation assay. In kind it is cell-based. As to conditions: Homo sapiens, HEK-293T; HEK293T cells transfected with Axl, 1 hour compound treatment, Phospho-Axl vs Total-Axl. An outline of the steps:
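HEK293T cells transiently transfected with Axl (empty pcDNA_DEST_40 vector as minimum control) were treated with compound in DMSO for 1 h, then lysed. Total and phospho-Axl in lysates were measured by Mesoscale electrochemiluminescence immunoassay. IC50 was taken relative to the DMSO vehicle and empty-vector controls.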

The subject of a further assay is HCC827/ER cells. Briefly: WST-1 cell viability assay in erlotinib-resistant cells. To be noted: compound combined with Erlotinib at constant 1:1 ratio, 3 days, FBS 1%.

T2 sequence (P08581 25-1390): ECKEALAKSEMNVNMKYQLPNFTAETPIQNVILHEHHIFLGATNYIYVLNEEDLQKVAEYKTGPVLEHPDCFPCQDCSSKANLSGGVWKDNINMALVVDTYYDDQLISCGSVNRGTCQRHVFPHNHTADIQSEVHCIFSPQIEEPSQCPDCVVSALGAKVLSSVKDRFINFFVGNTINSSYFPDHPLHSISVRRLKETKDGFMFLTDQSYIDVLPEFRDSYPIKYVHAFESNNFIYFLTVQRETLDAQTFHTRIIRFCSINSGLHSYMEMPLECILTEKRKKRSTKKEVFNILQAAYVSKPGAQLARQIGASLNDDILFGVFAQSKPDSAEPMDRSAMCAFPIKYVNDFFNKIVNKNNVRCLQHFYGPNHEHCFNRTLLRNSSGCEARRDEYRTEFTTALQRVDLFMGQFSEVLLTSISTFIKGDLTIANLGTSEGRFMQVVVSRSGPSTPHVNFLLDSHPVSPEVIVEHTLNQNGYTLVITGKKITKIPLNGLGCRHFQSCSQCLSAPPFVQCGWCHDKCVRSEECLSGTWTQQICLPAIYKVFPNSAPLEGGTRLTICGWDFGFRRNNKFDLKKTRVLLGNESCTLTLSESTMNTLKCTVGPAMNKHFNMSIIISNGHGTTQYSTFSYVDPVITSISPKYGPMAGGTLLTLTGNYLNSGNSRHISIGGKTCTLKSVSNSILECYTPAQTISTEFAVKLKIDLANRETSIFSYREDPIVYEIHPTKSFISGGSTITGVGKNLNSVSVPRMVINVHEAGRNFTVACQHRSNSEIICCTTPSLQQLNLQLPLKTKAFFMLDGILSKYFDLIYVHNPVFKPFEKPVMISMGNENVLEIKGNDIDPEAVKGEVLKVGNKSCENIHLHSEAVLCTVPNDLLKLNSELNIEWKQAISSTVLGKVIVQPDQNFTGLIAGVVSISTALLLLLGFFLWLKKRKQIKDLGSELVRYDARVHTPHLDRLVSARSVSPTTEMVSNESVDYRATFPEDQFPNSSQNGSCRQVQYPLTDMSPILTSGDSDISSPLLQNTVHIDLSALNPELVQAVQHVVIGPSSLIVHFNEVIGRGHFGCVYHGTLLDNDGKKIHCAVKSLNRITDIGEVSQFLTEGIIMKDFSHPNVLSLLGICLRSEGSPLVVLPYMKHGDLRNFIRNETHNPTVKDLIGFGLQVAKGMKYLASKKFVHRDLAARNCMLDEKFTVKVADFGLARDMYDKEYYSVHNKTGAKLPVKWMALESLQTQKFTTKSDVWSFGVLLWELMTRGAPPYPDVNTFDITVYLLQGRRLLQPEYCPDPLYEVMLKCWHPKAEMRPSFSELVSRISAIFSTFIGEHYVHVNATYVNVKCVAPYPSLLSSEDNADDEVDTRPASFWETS
Description for HCC827/ER cells: The killed cells were discarded and the remaining cells were cultured in a drug-free medium up to 80% confluence. Subsequently, cells were continuously exposed to increasing drug doses of up to 10 μM over a period of 8 months.
HCC827/ER cells were seeded in a 96-well plate with their respective media containing 10% FBS at 5000 cells/well. After seeding, the HCC827/ER cells were incubated for approximately 24 hours. […] The viability of the HCC827/ER cells was determined by adding WST-1 reagent according to Manufacturer's instructions (DoGenbio co., Ltd) and incubating for four hours. The plates were then read using an absorbance of 440 nm on Tecan Microplate reader (Infinite M200 pro, TECAN). The HCC827/ER cells' viability were calculated relative to vehicle (DMSO) control wells.

`CCOc1cn(CCC#N)nc1C(=O)Nc1ccc(Oc2ccnc3cc(OC)c(OC)cc23)cn1` [Compound 80]: the Kd (commonly the equilibrium constant for the complex coming apart) at Axl is under 100 nM; at Met, 100 to 1000 nM. In addition, the 50% inhibitory concentration (IC50) (usually the midpoint of a concentration-inhibition curve) in assay [1] was under 100 nM.

Turning to `CCOc1cn(-c2ccccn2)nc1C(=O)Nc1ccc(Oc2ccnc3cc(OC)c(OC)cc23)cn1` [Compound 4], the Kd at Axl and on Met was under 100 nM in each case. In assay [1], this compound gave an IC50 of under 100 nM.

Consider `CCOc1cn(-c2ccc(F)cc2)nc1C(=O)Nc1ccc(Oc2ccnc3cc(OC)c(OC)cc23)cn1` [Compound 89], for which the Kd on Axl and on Met was under 100 nM in each case. This compound had an IC50 in assay [1] of under 100 nM.

With `CCOc1cn(-c2ncc(N)cn2)nc1C(=O)Nc1ccc(Oc2ccnc3cc(OC)c(OC)cc23)cn1` [Compound 93], the Kd on Axl and on Met was under 100 nM in each case. Moreover, in assay [1], the IC50 is under 100 nM.

Turning to `CCOc1cn(C2CCCC2)nc1C(=O)Nc1ccc(Oc2ccnc3cc(OC)c(OC)cc23)cn1` [Compound 3], the Kd on Axl and at Met was under 100 nM each time. The IC50 in assay [1] was under 100 nM.

With `CCOc1cn(C(C)CC#N)nc1C(=O)Nc1ccc(Oc2ccnc3cc(OC)c(OC)cc23)cn1` (stereo not shown) [Compound 81], the Kd was under 100 nM at Axl and 100 to 1000 nM at Met. This compound showed an IC50 in assay [1] of under 100 nM.

For `CCOc1cn(-c2ccc(F)cc2C)nc1C(=O)Nc1ccc(Oc2ccnc3cc(OC)c(OC)cc23)c(Cl)c1` [Compound 82], the Kd at Axl and at Met was under 100 nM each time. The IC50 in assay [1] was under 100 nM.

For the compound `CCOc1cn(CCOC(F)F)nc1C(=O)Nc1ccc(Oc2ccnc3cc(OC)c(OC)cc23)cn1` [Compound 86], the Kd at Axl and on Met was under 100 nM in each case. Besides, the IC50 in assay [1] is under 100 nM.

Turning to `CCOc1cn(C2CCOC2)nc1C(=O)Nc1ccc(Oc2ccnc3cc(OC)c(OC)cc23)cn1` (stereo not shown) [Compound 76], the Kd on Axl is under 100 nM; on Met it was 100 to 1000 nM. In assay [1], this compound gave an IC50 of under 100 nM.

On to `CCOc1cn(-c2cccnc2)nc1C(=O)Nc1ccc(Oc2ccnc3cc(OC)c(OC)cc23)cc1F` [Compound 85], for which the Kd on Axl and at Met was under 100 nM each time. This compound also returned an IC50 in assay [1] of under 100 nM.

`CCOc1cn(-c2c(C)cc(OC)cc2C)nc1C(=O)Nc1ccc(Oc2ccnc3cc(OC)c(OC)cc23)cn1` [Compound 92]: the Kd on Axl and at Met was under 100 nM throughout. In addition, the IC50 in assay [1] is under 100 nM.

Turning to `CCOc1cn(-c2cnccc2C)nc1C(=O)Nc1ccc(Oc2ccnc3cc(OC)c(OC)cc23)cn1` [Compound 79], the dissociation constant Kd on Axl and on Met was under 100 nM in each case. The “Combination effect of compound and erlotinib on inhibition activity in Erlotinib-resistant cell-line” value in the assay with HCC827/ER cells is recorded as “synergistic effect”. The compound also came in with an IC50 in assay [1] of under 100 nM.

In the case of `CCOc1cn(-c2ccc(Cl)cc2C)nc1C(=O)Nc1ccc(Oc2ccnc3cc(OC)c(OC)cc23)cn1` [Compound 87], the Kd on Axl and at Met was under 100 nM throughout. This compound had an IC50 in assay [1] of under 100 nM.

In the case of `CCOc1cn(-c2cccnn2)nc1C(=O)Nc1ccc(Oc2ccnc3cc(OC)c(OC)cc23)cn1` [Compound 5], the Kd at Axl and at Met was under 100 nM each time. The same compound had an IC50 in assay [1] of under 100 nM.
